Assay results taken from paper PMC9032934 (Pharmaceutics, 2022).
Non-standard residues stand in square brackets, D forms with d. Residues, ends and D or L forms follow the SMILES beside them.

Key:
Caco-2 cells [1] = assay: Cell viability by DAPI labeling in flow cytometry, Caco-2; settings: CPZ 20 μM, NYS 50 μM, MBCD 5 mM, compared to non-treated cells (80 ± 10%)
Procedure: At the end of each incubation, cells were rinsed twice with D-PBS. […] After the addition of 400 μL of D-PBS supplemented with 5% (v/v) FBS, cells were transferred to 1.5 mL tubes and centrifuged (10 min, 4 °C, 1500 rpm). Cell pellets were resumed in 500 μL of D-PBS supplemented with 0.5% (v/v) FBS and 0.1% (v/v) 4′,6-diamidino-2-phenylindole (DAPI solution, Sigma-Aldrich, (Saint-Quentin-Fallavier, France), transferred to round-bottom polystyrene Falcon tubes (Thermo Fisher Scientific Inc., Rockford, IL, USA) and analyzed with a Fortessa LSR cytometer (Becton Dickinson, Pont-de-Claix, France; DAPI: λex = 405 nm/λem = 425–475 nm; TAMRA: λex = 561 nm/λem = 605–625 nm). Damaged cells were excluded with the DAPI labeling. For each condition, 10,000 events were recorded.

Caco-2 cells [2] = assay: Cellular uptake of Tamra-labelled peptides by flow cytometry, Caco-2; format: cell-based, human; settings: for decrease in transfection efficiency with 10% serum / decrease in transfection efficiency with 20% serum: Tamra-peptides 5 µM, 3 h; for decrease in transfection efficiency with 10% serum: OptiMEM + 10% (v/v) FBS vs 0%; for decrease in transfection efficiency with 20% serum: OptiMEM + 20% (v/v) FBS vs 0%
Procedure: (§1) Next, 48 h post-seeding, cells were rinsed twice with D-PBS and then incubated with 500 μL of Tamra-CPP-iCAL36 solution at the indicated conditions.
(§2) Standard transfection and kinetic measurements.
(§3) Transfection in the presence of serum.

Calu-3 cells = assay: Cellular uptake of Tamra-labelled peptides by flow cytometry, Calu-3; format: cell-based, human
Procedure: as §1, §2, §3

TatRI-iCAL36 = target: T1, TatRI-iCAL36 (N-terminal D-amino acid retro-inverso Tat (qpprrrqrrkkrg)); assay: fluorescence polarization
T1 chain: ANSRWPTSII

## C[C@@H]1[C@H](O)[C@@H](C)/C=C/C=C/CC/C=C/C=C/C=C/C=C/C(O[C@H]2O[C@H](C)[C@@H](O)[C@H](N)[C@@H]2O)CC2O[C@](O)(CC(O)C(O)CCC(O)CC(O)CC(O)CC(=O)O[C@H]1C)CC(O)C2C(=O)O (some centres unmarked) [NYS, nystatin]
Caco-2 cells [1]
  loss of viability (slight cytotoxicity) by endocytosis inhibitors: 5–20%

## CC[C@H](C)[C@H](NC(=O)[C@@H](NC(=O)[C@H](CO)NC(=O)[C@@H](NC(=O)[C@@H]1CCCN1C(=O)[C@H](Cc1c[nH]c2ccccc12)NC(=O)[C@H](CCCNC(=N)N)NC(=O)[C@H](CO)NC(=O)[C@H](CC(N)=O)NC(=O)[C@H](C)NC(=O)CNC(=O)[C@@H](CCCNC(=N)N)NC(=O)[C@@H](CCCCN)NC(=O)[C@@H](CCCCN)NC(=O)[C@@H](CCCNC(=N)N)NC(=O)[C@@H](CCCNC(=N)N)NC(=O)[C@@H](CCC(N)=O)NC(=O)[C@@H](CCCNC(=N)N)NC(=O)[C@@H](CCCNC(=N)N)NC(=O)[C@@H](CCCNC(=N)N)NC(=O)[C@H]1CCCN1C(=O)[C@H]1CCCN1C(=O)[C@H](N)CCC(N)=O)[C@@H](C)O)[C@@H](C)CC)C(=O)O [TatRI-iCAL36] (H-[dQ][dP][dP][dR][dR][dR][dQ][dR][dR][dK][dK][dR]GANSRWPTSII-OH)
Caco-2 cells [2]; Tamra-TatRI-iCAL36 1 µM, CQ 100 µM, n = 4, one-way ANOVA
  intracellular fluorescence without vs with chloroquine, peptide at 1 µM: no statistical difference
Caco-2 cells [2]; 37 °C, n = 4
  decrease in transfection efficiency with 10% serum: no significant difference
  decrease in transfection efficiency with 20% serum: 18%
Caco-2 cells [2]; Tamra-peptides in OptiMEM, 4.5 h vs […], 37 °C, n = 3 (Figure S2A)
  increase in signal intensity (internalization) with longer incubation time (4.5 h): ~ 3 fold

## GALFLGWLGAAGSTMGAWSQPKKKRKV-ANSRWPTSII [MPG-iCAL36, MPG cell-penetrating peptide conjugated to iCAL36]
Calu-3 cells; Calu-3, Tamra-labelled peptides 1 µM or 5 µM in OptiMEM, […], 37 °C, trypsinization, flow cytometry, mean ± SD, n = 4
  cellular internalization (Tamra fluorescence), comparison between peptides: superior to Tat-iCAL36 and its analogs
Calu-3 cells; Calu-3, Tamra-peptides 5 µM, 3 h, OptiMEM + 10% (v/v) FBS vs 0%, 37 °C, flow cytometry, n = 4
  decrease in transfection efficiency with 10% serum: ~ 20%
Calu-3 cells; Calu-3, Tamra-peptides 5 µM, 3 h, OptiMEM + 20% (v/v) FBS vs 0%, 37 °C, flow cytometry, n = 4
  decrease in transfection efficiency with 20% serum: ~ 30%
Caco-2 cells [2]; Tamra-labelled peptides 1 µM or 5 µM in OptiMEM, […], 37 °C, trypsinization, mean ± SD, n = 4
  cellular internalization (Tamra fluorescence), comparison between peptides: superior to Tat-iCAL36 and its analogs
Caco-2 cells [2]; 37 °C, n = 4
  decrease in transfection efficiency with 10% serum: ~ 30%
  decrease in transfection efficiency with 20% serum: ~ 50%

## GRKKRRQRRRPPQ-ANSRWPTSII (GRKKRRQRRRPPQANSRWPTSII) [Tat-iCAL36, Tat cell-penetrating peptide conjugated to the N-terminus of iCAL36]
Calu-3 cells
  increase in signal intensity (internalization) with longer incubation time (4.5 h): ~ 5.7 fold

B1: NHERF2 PDZ2 (N2P2) PDZ2 (protein)
chain: LRPRLCHLRKGPQGYGFNLHSDKSRPGQYIRSVDPGSPAARSGLRAQDRLIEVNGQNVEGLRHAEVVASIKAREDEARLLVVDPETD
TatRI-iCAL36
  Ki: > 5 mM

B2: NHERF2 PDZ1 (N2P1) PDZ1 (protein)
chain: RPRLCRLVRGEQGYGFHLHGEKGRRGQFIRRVEPGSPAEAAALRAGDRLVEVNGVNVEGETHHQVVQRIKAVEGQTRLLVVDQETD
TatRI-iCAL36
  Ki: > 5 mM
